What was measured:
[1] = test system: panel of six experienced tasters; assay: Evaluation of the umami impression of the pea extract in different bouillon bases (scale 0-3); format: in vivo, human; settings: bouillon base containing sub-threshold MSG (60 mg/L), no pea extract; average of six tasters, 0=no umami, 3=strong umami
Text: It is clear from Example 3 that the umami impression cannot be explained solely by the MSG content. The MSG taste threshold is described in the literature as between 0.255 and 0.5 g MSG/L (1.5-3 mmol/L) (Behrens, M., et al. (2011) Sweet and Umami Taste: Natural Products, Their Chemosensory Targets, and Beyond; Angew. Chem. Int. Ed., 50, 2220-2242). Therefore the MSG content for the Pisum sativum extract is below the taste threshold. To confirm the umami taste of the pea extract, all MSG containing ingredients (MSG, ribonucleotides and yeast extract) were removed from a standard bouillon. Pea extract was added. […] The effect of the addition of a pea extract to a bouillon base (which has no intrinsic umami taste) is to provide a strong umami taste. It is clear that the pea extract alone promotes umami taste, and that this effect is even greater in the presence of MSG.
The pea extract used was obtained by a blanching water process containing the composition as described in table 1.
The results given are the average rating of a panel of six experienced tasters rating the umami intensity (0=no umami; 1=umami barely perceivable; 2=umami clearly perceivable; 3=strong umami).

[2] = test system: panel of 12 experienced tasters; assay: Comparison of the umami impression of a standard bouillon containing MSG and a bouillon with pea extract but no MSG (scale 0-10); format: in vivo, human; settings: standard bouillon containing MSG; average of 12 tasters, 0=no umami, 10=strong umami
Text: A standard bouillon containing no MSG but added pea extract was compared to the same standard bouillon containing MSG. A trained panel rated the bouillons on a scale from 0 (no umami) to 10 (strong umami). This gives evidence that the pea extract delivers a strong umami even it is less than to MSG itself, but the taste is received as being more natural and round mouthfeel instead of using MSG alone. […] The pea extract used was obtained by a blanching water process containing the composition as described in table 1. The results given are the average rating of a panel of 12 experienced tasters rating the umami intensity (0=no umami; 10=strong umami).

[3] = test system: sensory panel of 6 trained persons; assay: Sensory evaluation of pea extract dissolved in water, umami intensity on a 3-point scale versus a control sample; format: in vivo, human; settings: calculated for the example with pea extract containing 0.5% beta-R in water
Protocol: Different pea extract from Pisum sativum containing the composition as described in table 1 has been used to define the threshold concentrates in a sensory panel of 6 trained persons. The technical tasting was measured versus a control sample. Tasters were asked to judge the different products according to umami intensity on a 3-point scale.

umami taste = assay: Fractionation of aqueous pea extract and analysis of the fractions with strong umami taste; settings: compound identified in pea extract
Protocol: The applicant prepared an aqueous extract of pea, preferably green pea and then subjected that extract to fractionation.
The compounds were isolated and characterized using two-dimensional preparative chromatography. For example, size exclusion chromatography in the first dimension, then hydrophilic interaction column (normal phase) in a second dimension. Identification of compounds was carried out using conventional analytical methods such as LC-MS or NMR.

Row | Compound | Umami Rating [1] | Umami Rating [2] | threshold concentrate [3] [ppm] | Contribution to umami taste (in words) (umami taste)
1 | N[C@@H](CCC(=O)O)C(=O)[O-].[Na+] [MSG, Monosodium glutamate] | 0 | 5 | – | –
2 | (5R)-(β-D-glucopyranosyloxy)-1,5-dihydro-2H-pyrrol-2-one [beta-R] | – | – | 147 | responsible to provide and enhance an umami taste

From patent publication US20180303141A1, “FLAVOR COMPOSITION FOR FOOD PRODUCTS” (NESTEC S.A., priority 2015, published 2018)
